Data published in PubChem BioAssay (NCI).
Where “and” joins values, the source holds several entries; their conditions need not be identical. Equal entries are not always repeated.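 Growth conditions: 96-well plates. Treatment: test compound, 48 hours, 5 concentrations. Analysis: linear interpolation between bracketing concentrations; unreached endpoints set to highest concentration. Here, GI50 denotes the concentration required for 50% inhibition of growth. TGI marks complete inhibition of growth.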

What was measured:
Assay in all cases: NCI anticancer screen, dose series, 48 h
HOP-92 NSCLC = tested on: HOP-92 NSCLC
MCF7 breast = tested on: MCF7 breast
MDA-MB-435 = tested on: MDA-MB-435
KM12 colon = tested on: KM12 colon
OVCAR-3 ovarian = tested on: OVCAR-3 ovarian
SNB-19 CNS = tested on: SNB-19 CNS
U251 CNS = tested on: U251 CNS
A498 renal = tested on: A498 renal
SF-539 CNS = tested on: SF-539 CNS
SN12C renal = tested on: SN12C renal

Row | Structure (SMILES) | GI50 (HOP-92 NSCLC) | TGI (HOP-92 NSCLC) | GI50 (MCF7 breast) | TGI (MCF7 breast) | GI50 (MDA-MB-435) | TGI (MDA-MB-435) | GI50 (KM12 colon) | TGI (KM12 colon) | GI50 (OVCAR-3 ovarian) | TGI (OVCAR-3 ovarian) | GI50 (SNB-19 CNS) | TGI (SNB-19 CNS) | GI50 (U251 CNS) | TGI (U251 CNS) | GI50 (A498 renal) | TGI (A498 renal) | GI50 (SF-539 CNS) | TGI (SF-539 CNS) | GI50 (SN12C renal) | TGI (SN12C renal)
1 | O=C(CN1C(=O)S/C(=C\C(Cl)=C\c2ccccc2)C1=O)NCCc1ccc(O)cc1 | 1.58 µM | 5.05 µM | 1.79 µM | 11.5 µM | 2.09 µM | 5.28 µM | 1.7 µM | 3.43 µM | 1.69 µM | 3.27 µM | 2.54 µM | 9.46 µM | 2 µM | 5.16 µM | 1.65 µM | 7.75 µM | 1.74 µM | 3.63 µM | 2.34 µM | 9.79 µM
2 | O=C(O)CP(=O)(O)O | – | > 100 µM | – | > 100 µM | – | > 100 µM | – | > 100 µM | – | > 100 µM | – | > 100 µM | – | > 100 µM | – | > 100 µM | – | > 100 µM | – | > 100 µM
3 | O=C(O)c1ccccc1-c1ccccc1C(=O)Nc1ccc2c(c1)[nH]c(=O)c1ccccc12 | – | > 100 µM | – | > 100 µM | – | > 100 µM | – | > 100 µM | – | > 100 µM | – | > 100 µM | – | > 100 µM | – | > 100 µM | – | > 100 µM | – | > 100 µM
4 | N=c1n(Cc2ccccc2)c(N)cc(=O)n1Cc1ccccc1 | 2.06 µM | 10 µM | 2.73 µM | 18.4 µM | 3.54 µM | 13.8 µM | 4.75 µM | 29.3 µM | 3.34 µM | 8.43 µM | 5.04 µM | 18.2 µM | 3.32 µM | 11.7 µM | 5.04 µM | 47.5 µM | 1.96 µM | 4.25 µM | 1.34 µM | 18.1 µM
5 | O=S(=O)(CCNCc1ccc(-c2ccc3ncnc(Nc4ccc(OCc5cccc(F)c5)c(Cl)c4)c3c2)o1)c1ccccc1 | 14.9 µM | > 25 µM | > 25 µM | > 25 µM | > 25 µM | > 25 µM | > 25 µM | > 25 µM | > 25 µM | > 25 µM | > 25 µM | > 25 µM | > 25 µM | > 25 µM | > 14.6 µM | > 25 µM | > 25 µM | > 25 µM | > 25 µM | > 25 µM
6 | Clc1ccc(C2=NN[C@H](c3cn(-c4ccccc4)nc3-c3ccccc3)C2)cc1 | 2.24 µM | 6.88 µM | 4.8 µM | 17.9 µM | 5.13 µM | > 100 µM | 11.1 µM | > 100 µM | 2.54 µM | 5.52 µM | 7.08 µM | 24.8 µM | 3.17 µM | 11.7 µM | 2.93 µM | 8.77 µM | 8.95 µM | 23 µM | 3.61 µM | 17.2 µM
7 | CSc1nc(C)c(Br)c(=O)n1C1OC(COC(C)=O)C(OC(C)=O)C(OC(C)=O)C1OC(C)=O (stereo not drawn) | – | 54.8 µM and 58.1 µM | – | > 100 µM | – | > 100 µM | – | > 100 µM | – | > 100 µM | 51.8 µM | > 100 µM | – | > 100 µM and 49.3 µM | 29.4 µM and 75.4 µM | > 100 µM | > 52.8 µM and 18.6 µM | > 80.2 µM and 34.4 µM | – | > 100 µM
8 | S=C(c1ccc2c(c1)OCO2)N1CCN(c2cccc(Cl)c2)CC1 | 95.4 µM | > 100 µM | 0.471 µM | > 100 µM | 0.182 µM | 0.607 µM | 0.447 µM | 29.7 µM | 0.338 µM | 1.23 µM | 3.13 µM | > 100 µM | 0.61 µM | > 100 µM | 0.424 µM | 12.8 µM | 1.1 µM | 8.13 µM | 7.51 µM | > 100 µM
9 | CS(=O)(=O)c1ccc(Oc2cc(F)cc(C#N)c2)c2c1[C@H](O)C(F)(F)C2 | > 100 µM | > 100 µM | > 100 µM | > 100 µM | > 100 µM | > 100 µM | > 100 µM | > 100 µM | > 100 µM | > 100 µM | > 100 µM | > 100 µM | > 100 µM | > 100 µM | > 100 µM | > 100 µM | > 100 µM | > 100 µM | > 100 µM | > 100 µM
10 | Brc1ccccc1C=NC12CC3CC(CC(C3)C1)C2 | – | > 100 µM | – | > 100 µM | – | > 100 µM | – | > 100 µM | – | > 100 µM | – | > 100 µM | – | > 100 µM | – | > 100 µM | – | > 100 µM | – | > 63.1 µM
11 | O=C(NC1CCCCC1)NS(=O)(=O)c1ccc(-n2nc3c(c2-c2ccc(Cl)cc2)Cc2ccccc2-3)cc1 | 6.45 µM | 25 µM | 15.3 µM | 45.7 µM | 8.27 µM | 28.1 µM | 10.6 µM | 30.4 µM | 13.7 µM | 28.8 µM | 43.7 µM | > 100 µM | 11.7 µM | 29.7 µM | 18.5 µM | 40.2 µM | 11.2 µM | 27.7 µM | 7.54 µM | 30.3 µM
12 | CC(=O)OC1Oc2cc(C)c(C)cc2-c2oc(=O)c(-c3ccc(F)cc3)cc21 (stereo not drawn) | 3.1 µM | 16.9 µM | 3.08 µM | 20.1 µM | 1.59 µM | 4.21 µM | 3.55 µM | 22.4 µM | 3.99 µM | 16.6 µM | 11.6 µM | > 100 µM | 4.06 µM | 45.6 µM | 5.06 µM | 67.4 µM | 7.1 µM | > 100 µM | 9.78 µM | > 100 µM
13 | O=C1CCC(N2Cc3c(C#CCCCNC(=O)c4cc5c(o4)C(=O)c4ccccc4C5=O)cccc3C2=O)C(=O)N1 (stereo not drawn) | 9.07 µM | 26 µM | 1.63 µM | 3.73 µM | 1.81 µM | 3.27 µM | 4.52 µM | 28.6 µM | 1.97 µM | 4.8 µM | 2.65 µM | 8.35 µM | 2.87 µM | 8.07 µM | 14.2 µM | 27.5 µM | 2.27 µM | 5.26 µM | 1.69 µM | 3.25 µM
14 | C/C(=C\CCc1ccsc1)CC/C=C(\C)CCCN1CCC(CO)CC1 | 1.02 µM | 3.69 µM | 2.17 µM | 5.09 µM | 1.87 µM | 3.87 µM | 1.88 µM | 3.47 µM | 2.11 µM | 4.29 µM | 2.63 µM | 9.28 µM | 1.42 µM | 3.11 µM | 1.24 µM | 3.5 µM | 1.69 µM | 3.36 µM | 3.24 µM | 14.2 µM
15 | Cn1ccnc1C(=O)/C=C/c1ccc(CC(=O)Nc2ccc(F)cc2)cc1 | 4.51 µM | 13 µM | 1.04 µM | 8.59 µM | 4.25 µM | 14.9 µM | 1.62 µM | 5.52 µM | 0.962 µM | 3.67 µM | 2.74 µM | 7.02 µM | 1.4 µM | 4.81 µM | 5.65 µM | 15.3 µM | 3.59 µM | 7.12 µM | 1.62 µM | 6.26 µM
16 | CCN(CC)CCCCNc1ncc2cc(-c3cc(OC)cc(OC)c3)c(NC(=O)NC(C)(C)C)nc2n1 | 2.11 µM | 18.4 µM | 5.35 µM | 23.1 µM | 4.87 µM | 18.2 µM | 9.65 µM | 23 µM | 11.9 µM | 25 µM | 13.7 µM | 28.7 µM | 2.77 µM | 17.5 µM | 0.0209 µM | 0.097 µM | 1.99 µM | 7.16 µM | 3.52 µM | 15.6 µM
17 | COc1ccc2cc(Cn3cc[n+](Cc4ccc5ccccc5c4)c3)ccc2c1 | 0.672 µM | 3.33 µM | 2.57 µM | 9.88 µM | 1.79 µM | 4.12 µM | 1.72 µM | 3.43 µM | 1.62 µM | 4.01 µM | 1.93 µM | 6.65 µM | 2.79 µM | 12.3 µM | 1.03 µM | 9.13 µM | 2.37 µM | 7.81 µM | 2.53 µM | 8.97 µM
18 | N#CCCSC(=S)C1CCCC1=N (stereo not drawn) | – | > 100 µM | – | > 100 µM | – | > 100 µM | – | > 100 µM | – | > 100 µM | – | > 100 µM | – | > 100 µM | – | > 100 µM | – | > 100 µM | – | > 100 µM
19 | O=C(NCCNc1nccc(-c2c(-c3ccc(F)cc3)nc3sccn23)n1)c1ccccc1 | 14.8 µM | 68.2 µM | 1.43 µM | 17.3 µM | 2.69 µM | 14 µM | 7.6 µM | 22.4 µM | 16.2 µM | > 100 µM | 11.9 µM | > 100 µM | 8.57 µM | > 100 µM | 15.1 µM | > 100 µM | 12.2 µM | 29.5 µM | 6.52 µM | 48.4 µM
20 | CCCCCCCCCCCCCCCCCC(=O)OCC(COC1OC(CS(=O)(=O)O)C(O)C(O)C1O)OC(=O)CCCCCCCCCCCCCCCCC (stereo not drawn) | – | > 100 µM | – | > 100 µM | – | > 100 µM | – | > 100 µM | – | > 100 µM | – | > 100 µM | – | > 100 µM | – | > 100 µM | – | > 100 µM | – | > 100 µM
21 | CCC(c1ccc2cc(O)ccc2c1)C(C)(C)C(=O)O (stereo not drawn) | – | > 100 µM | – | > 100 µM | – | > 100 µM | – | > 100 µM | – | > 100 µM | – | > 100 µM | – | > 100 µM | – | > 100 µM | – | > 100 µM | – | > 100 µM
